From the NIST ThermoML archive (doi:10.1021/acs.jced.9b00021)
Where “and” joins values, the source holds several entries; their conditions need not be identical. Identical values can stand only once.

Conditions: 400 kPa, Liquid, Concentric cylinders viscometry

CN(CCO)CCO [N-methyldiethanolamine]
Conditions	viscosity
298.15 K	73.1 mPa·s
303.15 K	55.89 mPa·s
308.15 K	43.45 mPa·s
313.15 K	34.15 mPa·s
318.15 K	27.15 mPa·s
323.15 K	21.82 mPa·s
328.15 K	17.79 mPa·s
333.15 K	14.63 mPa·s
338.15 K	12.2 mPa·s
343.15 K	10.21 mPa·s
348.15 K	8.61 mPa·s and 8.6 mPa·s
353.15 K	7.31 mPa·s
358.15 K	6.28 mPa·s and 6.29 mPa·s
363.15 K	5.43 mPa·s
368.15 K	4.72 mPa·s
373.15 K	4.12 mPa·s
